# Source: publication PMC10500001, “Dual hypoxia-responsive supramolecular complex for cancer target therapy” (Nature Communications, 2023)
# Values joined by “and” are separate entries in the source; they are usually repeats but may differ in a detail not shown here. Equal values may be shown once.
# Assays:
# [1] = system: PANC1 cells; assay: CCK8 cytotoxicity of SAC5A and SBE-β-CD, 24 h; type: cell-based, human; conditions: for cell viability: 24 h, in % (unit assumed)
# Protocol: PANC1 cells (5 × 10^3 cells/well) were seeded into the 96-well plate and incubated overnight. They were treated with SAC5A or SBE-β-CD of different concentrations and incubated for 24 h under normoxic or hypoxic conditions, respectively. […] After a 6 h incubation under normoxic conditions, the culture medium was exchanged with fresh medium. Subsequently, the cells were incubated at 37 °C for 18 h under either normoxic or hypoxic conditions, respectively. And then, the culture medium was replaced with fresh medium and 10 μL cell counting kit-8 solution (C6005, US Everbright, Jiangsu, China). Following a 4 h incubation, the optical density was assessed at 450 nm employing a microplate reader.
# Supplementary Figure 19. The cytotoxicity of SAC5A and SBE-β-CD. (a) Cell viability
# Data are presented as mean ± SD (n = 6 biologically independent samples).
# [2] = Competitive fluorescence titration of RhB@SAC5A with NMP-BE; conditions: binding of SAC5A to NMP-BE, 1:1 competitive binding, PBS 10 mM pH 7.4, 25 °C
# Protocol: Data are presented as mean ± SD (n = 3 biologically independent samples). Source data are provided as a Source Data file.
# The complexation of SAC5A with NMP-BE was measured by competitive fluorescence titrations. A mixed solution containing known amounts of reporter dye (RhB), host (SAC5A) and competitive guest (NMP-BE) was injected into 2.50 mL RhB and SAC5A solution in a quartz cuvette. Care was taken to keep the concentrations of dye and SAC5A constant in the course of titrations. The fluorescence intensity was measured (λex = 554 nm for RhB) before the first addition and after every addition. The association constant was obtained by fitting fluorescence intensity (λem = 575 nm for RhB) according to a 1:1 competitive binding model. The fitting of data from direct titrations and competitive titrations was performed in a nonlinear manner, and the fitting modules were downloaded from the website of Prof. Nau’s group (http://www.jacobs-university.de/ses/wnau) under the column of “Fitting Functions”.
# [3] = system: PANC1 tumor-bearing BALB/c nude mice; assay: In vivo anticancer effects of NMP and SAC5A; set-up: species or system mouse; conditions: for Tumor volume: Supplementary Fig.22a
# Protocol: Supplementary Figure 22. […] (a) Average […]
# presented as mean ± SD (n = 6 mice per group). P values are calculated by two-way […]
# Data are presented as mean ± SD ( n = 6 biologically independent samples ). P values are calculated by one-way ANOVA with Turkey’s multiple comparisons test: ns: no […]
# Note: (b) During the experiment, the tumor images were taken of PBS vs NMP, PBS vs SAC5A groups respectively. As the PBS group consisted of the same tumors, the tumor
# [4] = system: PANC1 tumor-bearing BALB/c nude mice; assay: In vivo anticancer efficacy study of NMP-BE@SAC5A; set-up: species or system mouse; conditions: for Tumor volume: SAC5A 15, NMP-BE 5, NMP-BE@SAC5A 20 mg/kg iv
# From the text: After the tumor grows to a suitable size, the tumor was divided into small pieces and then subcutaneously inoculated into the right flank of other mice. After 10 d of inoculation, when the tumor volumes of mice were around 50 mm^3, PANC1-bearing BALB/c nude mice were separated randomly with a total of six mice in each group. […] On day 18 after injection, the mice were euthanized, and their tumors were collected. […] In addition, we also investigated the anticancer effects of NMP-BE@SBE-β-CD.
# (§1) Tumors were measured as mentioned above.
# [5] = Biosafety: blood routine and blood chemistry assays
# Protocol: Toxic effects are a barrier to overcome before efficient deliverability can be achieved with BE.
# For in vivo anticancer efficacy study, 1 × 10^6 PANC1 cells were injected subcutaneously into the right flanks of the BALB/c nude mice. To investigate the anticancer effects of SBE-β-CD@NMP-BE, the mice with tumor volumes at around 50 mm^3 were randomized into four groups (6 mice per group) and injected intravenously via tails with 200 μL of PBS, NMP-BE (5 mg/kg), SBE-β-CD (15 mg/kg) and NMP-BE@SBE-β-CD (20 mg/kg) every two days for 8 times and the tumor volumes for 14 days were continuously monitored. Tumor were measured by using a Vernier calipers and the volume (V) was calculated to be V = d^2 × D/2, where d is the shortest and the D is longest diameter of the tumor in mm respectively. […] Tumors were measured as mentioned above. To assess potential toxicities, mice were monitored for weight loss. Tumors were collected for H&E analysis and immunofluorescence staining. Major organs including heart, liver, spleen, lung, and kidney, were collected and stained with H&E for histopathologic analysis. To evaluate biosafety of SAC5A, blood samples were collected for blood chemistry assay and blood routine assay.
# [6] = system: PANC1 tumor tissues; assay: Histology of dissected tumors (H&E, TUNEL, Ki67); conditions: mouse, in vivo
# Protocol: The hematoxylin-eosin (H&E) staining and terminal deoxynucleotidyl transferase dUTP nick end labeling (TUNEL) tests were next carried out to evaluate the cell pathology changes and apoptosis in the tumors of every groups. […] Meanwhile, we verified the effects of different treatments on cancer cell proliferation by immunofluorescence Ki67 staining.
# as §1
smiles,measurement,setting,value
"O=S(=O)(O)c1ccc(/N=N/c2cc3c(O)c(c2)Cc2cc(/N=N/c4ccc(S(=O)(=O)O)cc4)cc(c2O)Cc2cc(/N=N/c4ccc(S(=O)(=O)O)cc4)cc(c2O)Cc2cc(/N=N/c4ccc(S(=O)(=O)O)cc4)cc(c2O)Cc2cc(/N=N/c4ccc(S(=O)(=O)O)cc4)cc(c2O)C3)cc1 [SAC5A, sulfonated azocalix[5]arene]",cell viability,"[1]; PANC1, Hypoxia, 10 μM",101.91 and 106.97 and 106.87 and 103.95 and 95.76 and 94.38
same,cell viability,"[1]; PANC1, Hypoxia, 20 μM",98.99 and 105.90 and 107.51 and 100.07 and 96.78 and 98.26
same,cell viability,"[1]; PANC1, Hypoxia, 40 μM",96.62 and 103.74 and 107.19 and 94.57 and 95.43 and 98.62
same,cell viability,"[1]; PANC1, Hypoxia, 100 μM",89.44 and 102.24 and 97.97 and 93.46 and 97.47 and 88.44
same,cell viability,"[1]; PANC1, Hypoxia, 200 μM",96.47 and 99.73 and 95.34 and 92.70 and 90.07 and 95.59
same,cell viability,"[1]; PANC1, Hypoxia, 400 μM",98.35 and 96.22 and 97.85 and 103.12 and 92.08 and 92.95
same,cell viability,"[1]; PANC1, Normoxia, 10 μM",94.32 and 96.61 and 94.68 and 98.32 and 94.21 and 96.48
same,cell viability,"[1]; PANC1, Normoxia, 20 μM",92.78 and 88.19 and 94.36 and 97.85 and 97.21 and 107.50
same,cell viability,"[1]; PANC1, Normoxia, 40 μM",88.98 and 89.46 and 94.68 and 94.21 and 93.73 and 87.87
same,cell viability,"[1]; PANC1, Normoxia, 100 μM",86.69 and 92.80 and 86.44 and 99.65 and 91.72 and 99.02
same,cell viability,"[1]; PANC1, Normoxia, 200 μM",96.38 and 94.98 and 93.23 and 105.44 and 89.58 and 94.49
same,cell viability,"[1]; PANC1, Normoxia, 400 μM",90.21 and 94.16 and 91.97 and 97.63 and 95.37 and 92.10
same,cytotoxicities,"[1]; PANC1 cells, 10 μM to 0.40 mM, normoxic and hypoxic",negligible
same,Ka,[2],(5.1 ± 0.5) × 10^6 M^−1
same,Tumor volume,"[3]; day 0, individual mice (n=6)",39.34 mm3 and 42.10 mm3 and 36.90 mm3 and 42.16 mm3
same,Tumor volume,"[3]; day 2, individual mice (n=6)",46.70 mm3 and 75.90 mm3 and 48.08 mm3 and 55.90 mm3
same,Tumor volume,"[3]; day 4, individual mice (n=6)",55.83 mm3 and 118.84 mm3 and 75.42 mm3 and 64.80 mm3
same,Tumor volume,"[3]; day 6, individual mice (n=6)",73.60 mm3 and 175.66 mm3 and 110.64 mm3 and 99.97 mm3
same,Tumor volume,"[3]; day 8, individual mice (n=6)",97.53 mm3 and 181.96 mm3 and 126.04 mm3 and 134.13 mm3
same,Tumor volume,"[3]; day 10, individual mice (n=6)",142.07 mm3 and 265.92 mm3 and 173.37 mm3 and 226.57 mm3
same,Tumor volume,"[3]; day 12, individual mice (n=6)",165.62 mm3 and 298.12 mm3 and 264.30 mm3 and 338.22 mm3
same,Tumor volume,"[3]; day 14, individual mice (n=6)",268.77 mm3 and 498.25 mm3 and 328.38 mm3 and 404.85 mm3
same,Tumor volume,"[3]; day 16, individual mice (n=6)",387.44 mm3 and 789.47 mm3 and 472.22 mm3 and 693.97 mm3
same,Tumor volume,"[3]; day 18, individual mice (n=6)",532.86 mm3 and 970.26 mm3 and 525.48 mm3 and 748.96 mm3
same,Tumor weight,"[3]; individual mice (n=6), Supplementary Fig.22c",306.9 mg and 287.7 mg and 279.3 mg and 561.1 mg and 306.5 mg and 287.3 mg
same,Mice weight,"[4]; Day 0, single mouse",18.5 g and 17.7 g and 16.0 g and 18.0 g and 17.5 g and 16.6 g
same,Tumor volume,"[4]; Day 0, single mouse",39.34 mm3 and 42.10 mm3 and 36.90 mm3 and 42.16 mm3 and 42.33 mm3 and 56.35 mm3
same,Mice weight,"[4]; Day 2, single mouse",14.6 g and 16.5 g and 17.5 g and 17.9 g and 18.5 g and 17.6 g
same,Tumor volume,"[4]; Day 2, single mouse",46.70 mm3 and 75.90 mm3 and 48.08 mm3 and 55.90 mm3 and 59.70 mm3 and 76.08 mm3
same,Tumor volume,"[4]; Day 4, single mouse",55.83 mm3 and 118.84 mm3 and 75.42 mm3 and 64.80 mm3 and 72.81 mm3 and 104.25 mm3
same,Mice weight,"[4]; Day 6, single mouse",16.3 g and 16.8 g and 17.8 g and 19.4 g and 19.1 g
same,Tumor volume,"[4]; Day 6, single mouse",73.60 mm3 and 175.66 mm3 and 110.64 mm3 and 99.97 mm3 and 116.56 mm3 and 152.05 mm3
same,Mice weight,"[4]; Day 8, single mouse",16.1 g and 19.1 g and 16.0 g and 17.6 g and 17.1 g and 18.7 g
same,Tumor volume,"[4]; Day 8, single mouse",97.53 mm3 and 181.96 mm3 and 126.04 mm3 and 134.13 mm3 and 98.89 mm3 and 192.89 mm3
same,Mice weight,"[4]; Day 10, single mouse",15.8 g and 18.5 g and 15.6 g and 17.5 g and 16.4 g and 18.7 g
same,Tumor volume,"[4]; Day 10, single mouse",142.07 mm3 and 265.92 mm3 and 173.37 mm3 and 226.57 mm3 and 159.78 mm3 and 251.75 mm3
same,Mice weight,"[4]; Day 12, single mouse",16.5 g and 19.0 g and 16.2 g and 18.3 g and 16.3 g and 18.5 g
same,Tumor volume,"[4]; Day 12, single mouse",165.62 mm3 and 298.12 mm3 and 264.30 mm3 and 338.22 mm3 and 196.07 mm3 and 282.53 mm3
same,Mice weight,"[4]; Day 14, single mouse",16.0 g and 18.0 g and 16.1 g and 18.7 g and 16.4 g and 16.2 g
same,Tumor volume,"[4]; Day 14, single mouse",268.77 mm3 and 498.25 mm3 and 328.38 mm3 and 404.85 mm3 and 346.37 mm3 and 404.41 mm3
same,Mice weight,"[4]; Day 16, single mouse",16.6 g and 18.4 g and 19.3 g and 16.3 g and 19.7 g
same,Tumor volume,"[4]; Day 16, single mouse",387.44 mm3 and 789.47 mm3 and 472.22 mm3 and 693.97 mm3 and 504.38 mm3 and 616.16 mm3
same,Mice weight,"[4]; Day 18, single mouse",16.3 g and 17.8 g and 17.5 g and 16.2 g and 19.7 g
same,Tumor volume,"[4]; Day 18, single mouse",532.86 mm3 and 970.26 mm3 and 525.48 mm3 and 748.96 mm3 and 671.75 mm3 and 704.93 mm3
same,anticancer effect,"[4]; PANC1-bearing BALB/c nude mice, iv every other day, 18 days",no anticancer effect
same,Tumor weight,"[4]; day mice were sacrificed (day 18), single mouse",287.7 mg and 279.3 mg and 561.1 mg and 306.5 mg and 287.3 mg and 306.9 mg
same,ALP,"[5]; blood chemistry, individual mice 1-5, Fig.6h",192.3 U/L and 155.8 U/L and 154.8 U/L and 192.1 U/L and 150.9 U/L
same,ALT,"[5]; blood chemistry, individual mice 1-5, Fig.6i",40 U/L and 44.1 U/L and 53.2 U/L and 59.2 U/L and 46 U/L
same,AST,"[5]; blood chemistry, individual mice 1-5, Fig.6j",141.2 U/L and 161.4 U/L and 172.2 U/L and 182.6 U/L and 148.2 U/L
same,CRE,"[5]; blood chemistry, individual mice 1-5, Fig.6k",141.2 µmol/L and 161.4 µmol/L and 172.2 µmol/L and 182.6 µmol/L and 148.2 µmol/L
same,BUN,"[5]; blood chemistry, individual mice 1-5, Fig.6l",8.3 mmol/L and 8.7 mmol/L and 6.3 mmol/L
same,RBC,"[5]; blood routine, individual mice 1-5, Fig.6a",10.0 1012/L and 9.2 1012/L and 9.1 1012/L and 11.1 1012/L and 11.2 1012/L
same,MCHC,"[5]; blood routine, individual mice 1-5, Fig.6b",305 g/L and 300 g/L and 301 g/L and 299 g/L and 308 g/L
same,HCT,"[5]; blood routine, individual mice 1-5, Fig.6c",51.8% and 49.2% and 51% and 53.8% and 50.9%
same,MCV,"[5]; blood routine, individual mice 1-5, Fig.6d",48.4 fL and 48.1 fL and 48.2 fL and 48.5 fL and 49.1 fL
same,PLT,"[5]; blood routine, individual mice 1-5, Fig.6e",11.4 1011/L and 11.8 1011/L and 10.7 1011/L and 11.5 1011/L and 12.0 1011/L
same,RDW,"[5]; blood routine, individual mice 1-5, Fig.6f",14.3% and 14.9% and 13.6% and 13.3%
same,MPV,"[5]; blood routine, individual mice 1-5, Fig.6g",5.3 fL and 5.4 fL and 6 fL and 5.5 fL
same,"RBC, MCHC, HCT, MCV, PLT, RDW, MPV, ALP, ALT, AST, CRE, BUN levels versus PBS group",[5]; one-way ANOVA,no significance
same,"RBC, MCHC, HCT, MCV, PLT, RDW, MPV values",[5]; treated mice,small alteration
same,TUNEL apoptosis in tumors,[6],negligible apoptosis
